From patent publication US20250154170A1, “FUSED PYRIMIDINES AS KRAS INHIBITORS” (priority 2022, published 2025)

Assays:
K-Ras G12D = K-Ras G12D (Homo sapiens, UniProt P01116, G12D); assay: K-Ras G12D activation by SOS1 (KRAS G12D activation by SOS1cat assay, HTRF); format: biochemical; settings: mean, SOS1cat mediated loading of GST-KRAS G12D-GDP with fluorescent GTP analogue, read-out: K-Ras G12D activation by SOS1 IC50 - [mol/l] (mean)
Description: (§1) Preparation of test compound dilutions. A 100-fold concentrated solution of the test compound (50 nL) in DMSO was transferred to microtiter test plates (384 or 1,536 wells, Greiner Bio-One, Germany) using either a Hummingbird liquid handler (Digilab, MA, USA) or an Echo acoustic system (Labcyte, CA, USA). Plates were sealed with adhesive foil or heat-sealed and stored at −20 C until use. Serial dilutions of test compounds were prepared in 100% DMSO using a Precision Pipetting System (BioTek, USA).
(§2) Measurement and evaluation of inhibition data, calculation of IC50 values. Homogeneous time-resolved fluorescence (HTRF) was measured with a PHERAstar reader (BMG, Germany) using the HTRF module (excitation: 337 nm; emission 1: 620 nm, emission 2: 665 nm). The ratio of the emissions at 665 and 620 nm was used as the specific signal for further evaluation. The data were normalized using the controls: DMSO=0% inhibition, inhibition control wells with inhibitor control solution=100% inhibition. Compounds were tested in duplicates at up to 11 concentrations (e.g. 20 μM, 5.7 μM, 1.6 μM, 0.47 μM, 0.13 μM, 38 nM, 11 nM, 3.1 nM, 0.89 nM, 0.25 nM and 0.073 nM). IC50 values were calculated using a four-parameter fit, with a commercial software package (Genedata Screener, Switzerland).
(§3) KRAS^G12C activation by SOS1^cat assay (“On-assay”). This assay quantifies SOS1^cat mediated loading of KRAS^G12C-GDP with a fluorescent GTP analogue. Detection of successful loading was achieved by measuring resonance energy transfer from anti-GST-terbium (FRET donor) bound to GST-KRAS^G12C to the loaded fluorescent GTP analogue (FRET acceptor). The fluorescent GTP analogue EDA-GTP-DY-647P1 [2′/3′-O-(2-aminoethyl-carbamoyl)guanosine-5′-triphosphate labelled with DY-647P1 (Dyomics GmbH, Germany)] was synthesized by Jena Bioscience (Germany) and supplied as a 1 mM aqueous solution. A KRAS^G12C working solution was prepared in assay buffer [10 mM HEPES pH 7.4 (AppliChem), 150 mM NaCl (Sigma), 5 mM MgCl2 (Sigma), 1 mM DTT (Thermo Fisher), 0.05% BSA Fraction V pH 7.0 (ICN Biomedicals), 0.0025% (v/v) Igepal (Sigma)] containing GST-KRAS^G12C (final concentration in assay 50 nM) and anti-GST-terbium (Cisbio, France) (final concentration in assay 1 nM). A SOS1^cat working solution was prepared in assay buffer containing SOS1^cat (final concentration 10 nM) and EDA-GTP-DY-647P1 (final concentration 100 nM). An inhibitor control solution was prepared in assay buffer containing EDA-GTP-DY-647P1 (final concentration 100 nM) without SOS1^cat. All steps of the assay were performed at 20° C. A volume of 3 μL of the KRAS^G12C working solution was added to all wells of the test plate using a Multidrop dispenser (Thermo LabSystems). After 15 min, 2 μL of the SOS1^ct working solution was added to all wells, except for the inhibitor control solution wells. After 30 min incubation, HTRF was measured.
(§4) G12D and Wild-type KRAS activation by SOS1cat assays. These assays quantify human SOS1^cat mediated loading of wild-type GST-KRAS^WT-GDP or GST-KRAS^G12D-GDP with a fluorescent GTP analogue. The assay was performed similarly to the KRAS^G12C activation by SOS1^cat assay with the following differences: final concentration of SOS1^cat of 60 nM and final incubation time before measurement of 10 min for KRAS^G12D assay, final concentration of SOS1^cat of 20 nM and final incubation time before measurement of 15 min for wild-type KRAS assay, respectively. GST-KRAS^G12C was replaced by GST-KRAS^WT or GST-KRAS^G12D, respectively, also at 50 nM final concentration.
KRAS^G12D activation by SOS1^cat assay (“On-assay”). This assay quantifies SOS1^cat mediated loading of KRAS^G12D-GDP with a fluorescent GTP analogue. Detection of successful loading was achieved by measuring resonance energy transfer from anti-GST-terbium (FRET donor) bound to GST-KRAS^G12D to the loaded fluorescent GTP analogue (FRET acceptor).

K-Ras-wildtype = K-Ras-wildtype (Homo sapiens, UniProt P01116); assay: K-Ras-wildtype activation by SOS1 (wild-type KRAS activation by SOS1cat assay, HTRF); format: biochemical; settings: mean, SOS1cat mediated loading of wild-type GST-KRAS-GDP with fluorescent GTP analogue, read-out: K-Ras-wildtype activation by SOS1 IC50 - [mol/l] (mean)
Description: as §1, §2, §3, §4
Wild-type KRAS activation by SOS1^cat assay. This assay quantifies human SOS1^cat mediated loading of wild-type GST-KRAS-GDP with a fluorescent GTP analogue. The assay was performed similarly to the KRAS^G12D activation by SOS1^cat assay just by replacement of GST-KRAS^G12D by wild-type GST-KRAS while concentrations of all components and incubation times were the same.

K-Ras-wildtype, sequence (P01116 1-188 isoform P01116-2): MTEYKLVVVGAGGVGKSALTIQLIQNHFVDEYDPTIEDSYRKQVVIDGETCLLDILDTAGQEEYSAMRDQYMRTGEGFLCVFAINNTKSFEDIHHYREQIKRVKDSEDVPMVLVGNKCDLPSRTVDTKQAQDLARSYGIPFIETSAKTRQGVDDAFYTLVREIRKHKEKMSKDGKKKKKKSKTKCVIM
K-Ras G12D, sequence (P01116 1-188 isoform P01116-2 G12D): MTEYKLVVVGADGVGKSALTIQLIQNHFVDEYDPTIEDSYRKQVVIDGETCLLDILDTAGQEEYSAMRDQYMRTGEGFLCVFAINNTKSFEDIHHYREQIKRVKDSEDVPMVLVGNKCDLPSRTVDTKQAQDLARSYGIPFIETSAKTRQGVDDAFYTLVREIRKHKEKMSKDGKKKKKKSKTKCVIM

C#Cc1c(F)ccc2cc(O)cc(Oc3nc4c(N5CC6COCC(C5)N6)nc(OC[C@@]56CCCN5C[C@H](F)C6)nc4s3)c12 [Example 19, 5-ethynyl-6-fluoro-4-{[5-{[(2R,7aS)-2-fluorotetrahydro-1H-pyrrolizin-7a(5H)-yl]methoxy}-7-(3-oxa-7,9-diazabicyclo[3.3.1]nonan-7-yl)[1,3]thiazolo[5,4-d]pyrimidin-2-yl]oxy}naphthalen-2-ol] showed an IC50 (K-Ras G12D) of 14.3 nM and an IC50 (K-Ras-wildtype) of 10.7 nM.
With C#Cc1c(F)ccc2cc(O)cc(Oc3nc4nc(OCC56CCCN5CCC6)nc(N5CC6CCC(C5)N6)c4n3C)c12 [Example 22, 4-({6-(3,8-diazabicyclo[3.2.1]octan-3-yl)-7-methyl-2-[(tetrahydro-1H-pyrrolizin-7a(5H)-yl)methoxy]-7H-purin-8-yl}oxy)-5-ethynyl-6-fluoronaphthalen-2-ol] the IC50 (K-Ras G12D) was 89.5 nM and the IC50 (K-Ras-wildtype) was > 20000 nM.
C#Cc1c(Cl)ccc2cc(O)cc(Oc3nc4c(N5CC6CCC(C5)N6)nc(OC[C@@]56CCCN5C[C@H](F)C6)nc4s3)c12 [Example 23, 6-chloro-4-{[7-(3,8-diazabicyclo[3.2.1]octan-3-yl)-5-{[(2R,7aS)-2-fluorotetrahydro-1H-pyrrolizin-7a(5H)-yl]methoxy}[1,3]thiazolo[5,4-d]pyrimidin-2-yl]oxy}-5-ethynylnaphthalen-2-ol] gave an IC50 (K-Ras G12D) of 4.9 nM and an IC50 (K-Ras-wildtype) of 95 nM.
In the case of Oc1cc(Nc2nc3c(N4CC5CCC(C4)N5)nc(OC[C@@]45CCCN4C[C@H](F)C5)nc3s2)c2ccccc2c1 [Example 28, 4-{[7-(3,8-diazabicyclo[3.2.1]octan-3-yl)-5-{[(2R,7aS)-2-fluorotetrahydro-1H-pyrrolizin-7a(5H)-yl]methoxy}[1,3]thiazolo[5,4-d]pyrimidin-2-yl]amino}naphthalen-2-ol], the IC50 (K-Ras G12D) is reported as 1410 nM and the IC50 (K-Ras-wildtype) is reported as > 20000 nM.
CN(c1nc2c(N3CC4CCC(C3)N4)nc(OC[C@@]34CCCN3C[C@H](F)C4)nc2s1)c1cc(O)cc2ccccc12 [Example 29, 4-{[7-(3,8-diazabicyclo[3.2.1]octan-3-yl)-5-{[(2R,7aS)-2-fluorotetrahydro-1H-pyrrolizin-7a(5H)-yl]methoxy}[1,3]thiazolo[5,4-d]pyrimidin-2-yl](methyl)amino}naphthalen-2-ol] showed an IC50 (K-Ras G12D) of 284 nM and an IC50 (K-Ras-wildtype) of 11900 nM.
With Oc1cc(Nc2nc3c(N4CC5COCC(C4)N5)nc(OC[C@@]45CCCN4C[C@H](F)C5)nc3s2)c2ccccc2c1 [Example 30, 4-{[5-{[(2R,7aS)-2-fluorotetrahydro-1H-pyrrolizin-7a(5H)-yl]methoxy}-7-(3-oxa-7,9-diazabicyclo[3.3.1]nonan-7-yl) [1,3]thiazolo[5,4-d]pyrimidin-2-yl]amino}-2-naphthol] the IC50 (K-Ras G12D) was 10600 nM and the IC50 (K-Ras-wildtype) was 7610 nM.
With C#Cc1cccc2cc(O)cc(N(C)c3nc4c(N5CC6CCC(C5)N6)nc(OC[C@@]56CCCN5C[C@H](F)C6)nc4s3)c12 [Example 31, 4-{[7-(3,8-diazabicyclo[3.2.1]octan-3-yl)-5-{[(2R,7aS)-2-fluorotetrahydro-1H-pyrrolizin-7a(5H)-yl]methoxy}[1,3]thiazolo[5,4-d]pyrimidin-2-yl](methyl)amino}-5-ethynylnaphthalen-2-ol] the IC50 (K-Ras G12D) was 4.42 nM and the IC50 (K-Ras-wildtype) was 61.5 nM.
Work on C#Cc1c(F)ccc2cc(O)cc(Cc3nc4c(N5CC6CCC(C5)N6)nc(OC[C@@]56CCCN5C[C@H](F)C6)nc4s3)c12 [Example 32, 4-{[7-(3,8-diazabicyclo[3.2.1]octan-3-yl)-5-{[(2R,7aS)-2-fluorotetrahydro-1H-pyrrolizin-7a(5H)-yl]methoxy}[1,3]thiazolo[5,4-d]pyrimidin-2-yl]methyl}-5-ethynyl-6-fluoronaphthalen-2-ol] yielded an IC50 (K-Ras G12D) of 3.95 nM and an IC50 (K-Ras-wildtype) of 99.8 nM.
